Experimental data reported in patent US20110171225A1, “Novel Plasmodium Falciparum Gene Encoding Signal Peptide Peptidase and Method of Using Inhibitors Thereof for Inhibiting Malarial Infection” (The Board of Trustees of the University of Illinois, priority 2008, published 2011).
“Also recorded” adds a separate entry of the source. Read-outs that look alike come from different tables or passages of the source. No end group written: not given here.

T1: SPP (Homo sapiens, UniProt Q8TCT9)
T1 sequence (Q8TCT9 1-377): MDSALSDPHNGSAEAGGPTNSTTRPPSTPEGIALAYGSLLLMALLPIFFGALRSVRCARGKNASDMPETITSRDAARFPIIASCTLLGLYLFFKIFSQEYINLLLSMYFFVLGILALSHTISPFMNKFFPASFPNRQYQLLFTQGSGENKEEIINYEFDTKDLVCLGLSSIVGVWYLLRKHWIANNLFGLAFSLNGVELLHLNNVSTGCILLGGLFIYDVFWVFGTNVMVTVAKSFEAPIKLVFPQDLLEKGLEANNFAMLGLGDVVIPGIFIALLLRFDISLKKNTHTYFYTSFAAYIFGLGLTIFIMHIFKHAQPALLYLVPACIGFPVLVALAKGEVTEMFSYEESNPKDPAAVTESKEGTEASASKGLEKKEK

T2: GST-5ABC (GST fused to residues 720-761 of human erythrocyte band 3) (human, UniProt P02730 720-761)
T2 construct: also called soluble GST-5ABC; GST-5ABC conjugated to beads
T2 chain: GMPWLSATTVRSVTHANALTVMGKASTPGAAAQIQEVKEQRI


Experiments:
[1] = test system: P. falciparum merozoite invasion of human erythrocytes; assay: RBC invasion by synchronized schizonts with SPP inhibitors, new rings counted; format: cell-based; details: increasing concentrations, 20 h, versus DMSO
Excerpt: To investigate the role of PfSPP in parasite invasion, a chemical approach was adopted by employing three synthetic inhibitors of mammalian membrane aspartyl proteases. The inhibitor (Z-LL)2-ketone (Calbiochem/EMD Biosciences, Gibbstown, N.J.) is specific for mammalian SPP, whereas the L-685,458 and DAPT inhibitors (both were gift of Dr. S. Sisodia of the University of Chicago) are known to be specific for the γ-secretase/Presenilin-1 complex (FIG. 8A). […] Herein, human erythrocytes with highly synchronized P. falciparum schizonts were incubated in the presence of increasing concentrations of (Z-LL)2-ketone, L-685,458, and DAPT. After 20 h of incubation, the rings were counted from the inhibitor and DMSO treated samples.

[2] = target: T3, γ-secretase/Presenilin-1 complex (Homo sapiens, UniProt P49768); details: (Z-LL)2-ketone up to 100 μM; cited from earlier work
T3 construct: host or cells: live mammalian cells

P. falciparum 3D7 = assay: Parasite growth in human erythrocytes from synchronized ring stage; format: cell-based; details: for inhibition of parasite replication (in words): 10 μM, after one cycle of asexual multiplication; for effect on parasite growth in erythrocytes (in words): ring stage parasites, 0.2% DMSO
Excerpt: FIG. 9B depicts a graph indicating inhibition of parasite growth as a result of (Z-LL)2-ketone (▪), L-685,458 (•), and DAPT (♦) treatment. […] FIG. 9C is a schematic diagraph showing disruption of the P. falciparum (3D7 strain) PfSPP gene. PfSPP5′ and PfSPP3′ represent 5′ translated region (616 bp) and 3′ translated region (711 bp) of the PfSPP gene, respectively. Dashed lines represent bacterial vector sequences. Bold lines represent untranslated regions of the target PfSPP gene.
The P. falciparum strain 3D7 (obtained from MR4) was maintained in continuous culture in a 5% suspension of fresh type O+ human erythrocytes in RPMI 1640 at 37° C. under 5% CO2, 5% O2, and 90% N2 by the method of Trager and Jensen (Trager et al., 1976, Science 193:673-5). Ring-stage parasites were synchronized by using 5% sorbitol treatment and late-stage parasites were enriched to >95% by centrifugation in 63% (v/v) Percoll as described (Goel et al., 2003, Proc Natl Acad Sci USA 100:5164-5169). The parasite protein extract was prepared by solubilizing an enriched fraction of mature parasites with an extraction buffer (50 mM Tris-HCl, pH 8.0, 150 mM NaCl, 5 mM EDTA, 5 mM EGTA, 0.5% Triton X-100, 0.5% BSA) supplemented with 2 μg/ml Aprotinin, 1 μg/ml of Leupeptin, Pepstatin A, Bestatin, 10 mM PMSF, and a cocktail of protease inhibitors (Roche, Indianapolis, Ind.). The mixture was kept on ice for 1 h and centrifuged at 12,000 g for 20 min at 4° C. The supernatant was stored at −80° C. in aliquots and used in the antibody characterization and binding assays.
The effects of the three inhibitors on malaria parasite growth in human erythrocytes were examined Synchronized ring stage parasites were incubated with inhibitors in the presence of 0.2% DMSO. […] The precipitous decline in parasitemia presumably originated from inhibition of late rings or early trophozoites, as pyknotic parasites were observed after 24-48 h of culture in the presence of (Z-LL)2-ketone and L-685,458 (FIG. 4). Destruction of the inhibitor-treated parasites was irreversible, as no progression to the second asexual cycle was observed. In contrast, DAPT had little or no effect on parasite growth as compared to the DMSO-treated control (FIG. 9A).

[3] = test system: incomplete version of PfSPP lacking the 6 amino acids; details: cited from earlier work
P. falciparum 7G8 = assay: Parasite growth by [3H]-hypoxanthine incorporation; format: cell-based; details: 7G8 strain, chloroquine-resistant
Procedure: (§1) Since the primary structure of PfSPP is highly conserved, the effect of these inhibitors on the growth of other P. falciparum strains was also tested. The parasite strains tested included two chloroquine-resistant P. falciparum strains (7G8, Dd2), one chloroquine-sensitive strain (HB3), and one mildly chloroquine-resistant strain (FCR3). Parasite growth was evaluated in these four strains by measuring [^3H]-hypoxanthine incorporation starting at 24 h post-invasion. Both (Z-LL)2-ketone and L-685,458 inhibited parasite growth in all 4 parasite strains with the IC50 values similar to 3D7 strain, while DAPT had no effect on any strain (Table 2).

P. falciparum HB3 = assay: Parasite growth by [3H]-hypoxanthine incorporation; format: cell-based; details: HB3 strain, chloroquine-sensitive
Procedure: as §1

P. falciparum Dd2 = assay: Parasite growth by [3H]-hypoxanthine incorporation; format: cell-based; details: Dd2 strain, chloroquine-resistant
Procedure: as §1

P. falciparum FCR3 = assay: Parasite growth by [3H]-hypoxanthine incorporation; format: cell-based; details: FCR3 strain, mildly chloroquine-resistant
Procedure: as §1

SPP = target: T1, SPP; details: DAPT at 100 μM; cited from earlier work
PfSPP = assay: RBC-binding assay in suspension with native PfSPP from culture supernatant; parameters: species or system P. falciparum; details: soluble protein 40 μM, quantified by densitometry of immunoblot
Procedure: To carry out a RBC-binding assay in solution using native PfSPP, a spent culture supernatant of P. falciparum containing native PfSPP was prepared as follows. Trophozoites enriched from a 5% sorbitol-synchronized P. falciparum culture were allowed to mature for 16 h to form schizonts and merozoites. The parasites were left in the culture flask to lyse and the proteins were released into the culture supernatant. Aliquots of the culture were centrifuged at either 12,000 g for 20 min or 40,000 g for 15 min at 4° C. The culture supernatant and pellet were analyzed by immunoblot analysis using anti-PfSPP pAbs. The culture supernatant prepared at 12,000 g was stored at −80° C. in aliquots and used in subsequent RBC binding assays. In these assays, a 500 μl sample of P. falciparum culture supernatant was added to untreated, trypsin-treated, chymotrypsin-treated, or neuraminidase-treated intact human RBCs (50 μl packed volume) for 1 h at room temperature. The cells were centrifuged at 12,000 g for 30 s through a layer of silicone oil (500 μl). Proteins bound to RBCs were eluted by incubating the RBCs in 1.5 M NaCl (20 μl) for 30 min at room temperature. Salt-eluted proteins were analyzed by SDS-PAGE followed by immunoblotting using anti-PfSPP Abs. The pretreatment of intact RBCs with enzymes was carried out as described (Goel et al., 2003, Proc Natl Acad Sci USA 100:5164-5169). […]

[4] = target: T2, GST-5ABC (GST fused to residues 720-761 …); assay: bead pull-down (GST-5ABC on GSH beads), immunoblot with anti-PfSPP/ER pAbs
[5] = 3D7 strain, read-out: IC50 parasite growth
[6] = FIG. 9B legend, read-out: IC50 for live parasites

Row | Molecule | effect on parasite/merozoite invasion (in words) [1] | inhibition of γ-secretase/Presenilin-1 activity (in words) [2] | inhibition of parasite replication (in words) (P. falciparum 3D7) | IC50 (P. falciparum 3D7; [5]) | IC50 (P. falciparum 3D7; [6]) | effect on parasite growth in erythrocytes (in words) (P. falciparum 3D7) | inhibition of in vitro enzyme activity (in words) [3] | IC50 (P. falciparum 7G8) | IC50 (P. falciparum HB3) | IC50 (P. falciparum Dd2) | IC50 (P. falciparum FCR3) | effect on SPP activity (in words) (SPP) | decrease of binding of PfSPP to RBCs (PfSPP) | binding result [4]
1 | CC(C)C[C@H](NC(=O)OCc1ccccc1)C(=O)N[C@@H](CC(C)C)C(=O)NCC(=O)CNC(=O)[C@H](CC(C)C)NC(=O)[C@H](CC(C)C)NC(=O)OCc1ccccc1 [(Z-LL)2-ketone] | efficiently inhibited; also recorded: significant decrease in the number of new rings | does not inhibit | complete inhibition | 985 nM | 985 nM | significant inhibition | inhibited | 1120 ± 50 nM | 1060 ± 50 nM | 1080 ± 70 nM | 1230 ± 40 nM | – | – | –
2 | C[C@H](NC(=O)Cc1cc(F)cc(F)c1)C(=O)N[C@H](C(=O)OC(C)(C)C)c1ccccc1 [DAPT] | minimal effect; also recorded: no effect | – | – | – | – | no effect | – | > 10000 nM | > 10000 nM | > 10000 nM | > 10000 nM | no effect | – | –
3 | CC(C)C[C@H](NC(=O)[C@H](Cc1ccccc1)C[C@@H](O)[C@H](Cc1ccccc1)NC(=O)OC(C)(C)C)C(=O)N[C@@H](Cc1ccccc1)C(N)=O [L-685,458] | efficiently inhibited; also recorded: significant decrease in the number of new rings | inhibited | complete inhibition | 174 nM | 174 nM | significant inhibition | – | 210 ± 40 nM | 190 ± 20 nM | 180 ± 30 nM | 230 ± 30 nM | inhibited | – | –
4 | C[C@H](NC(=O)[C@@H](O)c1cc(F)cc(F)c1)C(=O)N[C@@H]1C(=O)N(C)c2ccccc2-c2ccccc21 [LY411,575] | – | – | – | – | – | – | inhibited | – | – | – | – | – | – | –
5 | GST-5ABC: GST fusion protein of 5ABC peptide, residues 720-761 of human band 3 (SEQ ID NO:7) (GMPWLSATTVRSVTHANALTVMGKASTPGAAAQIQEVKEQRI; also: GST fusion; UniProt P02730 720-761, looked up, fragment) | – | – | – | – | – | – | – | – | – | – | – | – | 94% | –
6 | native Plasmodium falciparum signal peptide peptidase (PfSPP) (enzyme, also called native PfSPP; native P. falciparum PfSPP) MNLLKLIGKNKKMKNENMGNSIFYYSCYVIIVLTIILSKFVVIPLMAQMFLYTFITIYIGSHDSLKQLEIDDKTKKSDNITAYDAMMFPVIGSAALLTLYFAYKFLDPFYVNLLLTLYLTLAGVFSLQGVFTTILEPVFPNFFKKDEYVKTFKLPNFIYKEPIVFNTNKGEIVCLILSFAIGLRWIFYKDFITHNVLAVSFCFQAISLVILSNFLIGFLLLSGLFVYDIFWVFGNDVMVTVAKSFEAPVKLLFPVSSDPVHYSMLGLGDIIIPGILMSLCLRFDYYLFKNNIHKGNLKKMFNDISIHESFKKYYFYTIIIFYELGLVVTYCMLFYFEHPQPALLYLVPACILAILACSICKREFKLMIKYQEITDKSNTVDDASKNKKKDKEEIPKIQETPVSNAKKRITNK | – | – | – | – | – | – | – | – | – | – | – | – | – | binds
